One data set deals with rat brain. In words: Endovascular brain mapping: dye or embolic agent infused into the internal carotid artery, brains harvested to examine staining quality. As to conditions: ICA infusion after blood brain barrier disruption with arabinose, dye mixed with Omnipaque. Format: in vivo, Sprague Dawley rats.
The conditions of data set [1]: chronic subcutaneous injections; cited from earlier work.
The conditions of data set [2]: cited from earlier work.
A further data set concerns brain parenchyma. As to conditions: awake patient, intra-arterial infusion; cited from earlier work.
For data set [3] the following is noted: cited from earlier work. This is another data set of the same source.
The mark [4] stands for this setting: Table 3, solvent or buffer named.
The mark [5] stands for this setting: Table 1, medium in which the fluorophore is solubilised.

The values that follow come from US20030236457A1, “Method of endovascular brain mapping” (priority 2002, published 2003).

Structures can show the parent of a compound that is named as a salt. Where two headings read alike, the source gives them in different places. Ends that are not written are not given here.

Description for rat brain: Generally, Sprague Dawley rats were anesthetized and vascular access obtained by ventral cervical cutdown. A catheter was introduced into the common carotid artery proximal to the ICA. All other branches were clamped temporarily with aneurysm clips, permitting flow to the ICA alone. The blood brain barrier was disrupted with a solution of arabinose. […] Tantalum powder was also tested without blood brain barrier disruption. The brains were harvested for examination of the quality of staining.
Using a carotid cutdown method, the CCA was exposed and a catheter was introduced into the lumen proximal to the ICA. A ligature secured the catheter within the vessel. The external carotid artery and occipital artery were clamped, preserving flow to the ICA.
To test the use of tantalum powder, the same procedure described above was performed without disruption of the blood brain barrier. A small amount of tantalum powder suspension was then injected under fluoroscopic visualization until the right hemispheric distribution was opacified.

Regarding `CCN(Cc1cccc(S(=O)(=O)[O-])c1)c1ccc(C(=C2C=CC(=[N+](CC)Cc3cccc(S(=O)(=O)[O-])c3)C=C2)c2ccc(O)cc2S(=O)(=O)[O-])cc1.[Na+].[Na+]` [FD & C Green #3], the “staining of the selected vascular distribution of the brain” value in the data set with rat brain is reported as “clearly stained both on the cortical surface”; in the data set on rat brain (listed as FD&C Green #3), “good staining of a selective vascular distribution”. The induction of sarcomas entry in data set [1] is reported as “induction of sarcomas”.
On to “FLUO-RRLSYSRRRF (not fully specified (N-terminus); printed as FLUO-RRLSYSRRRF) [FLUO-L-SynB3]”, for which the Solubility entry in data set [2] (setting [4]) is “PBS”.
Consider `CCCCc1ccc2n1[B-](F)(F)[N+]1=C(CCCCCCCCC(=O)O)C=CC1=C2` [C4-BODIPY ® (500/510) C9, 5-butyl-4,4-difluoro-4-bora-3a,4a-diaza-s-indacene-3-nonanoic acid], for which, in data set [2] (setting [5]), the Solubility result is on record as “CDs”.
Turning to “FLUO-RGGRLSYSRRRESTSTGR (not fully specified (N-terminus); printed as FLUO-RGGRLSYSRRRESTSTGR) [FLUO-L-SynB1]”, in data set [2] (setting [4]), the Solubility result is on record as “Phosphate”.
For `C=CCC1(C(C)C#CCC)C(=O)N=C(O)N(C)C1=O` (racemic) [Brevital®, Methohexital Sodium; 2,4,6 (1H, 3H, 5H) Pyrimidinetrione, 1-methyl-5-(1-methyl-2-pentynyl)-5-(2-propenyl)-, (±)-, monosodium salt], in the data set with brain parenchyma, the “duration of temporary neurological deficits after infusion” value was “resolve back to baseline within several minutes”.
As to `NCc1ccc(-c2c3ccc(=O)cc-3oc3cc(O)ccc23)c(C(=O)O)c1` [5-(aminomethyl) fluorescein, hydrochloride], the Solubility result in data set [2] (setting [4]) was “DMF”.
carboxymethyl-β-cyclodextrin [CM-β-CD]: the solubility in water in data set [3] is listed as 50 mg/mL.
Turning to `CC1=CC(C)=[N+]2C1=Cc1c(C)cc(C)n1[B-]2(F)F` [Tetramethyl- BODIPY ® (505/515), 4,4-difluoro-1,3,5,7-tetramethyl-4-bora-3a,4a-diaza-s-indacene], the Solubility result in data set [2] (setting [5]) is “Cyclodextrins (CD)”.
Turning to `CCCCCCCCCCCC(=O)Nc1ccc(-c2c3ccc(=O)cc-3oc3cc(O)ccc23)c(C(=O)O)c1` [5-dodecanoylamino-fluorescein], the Solubility result in data set [2] (setting [5]) is “CDs”.
